Test results published in publication PMC6705855, “Computational and experimental elucidation of Plasmodium falciparum phosphoethanolamine methyltransferase inhibitors: Pivotal drug target” (PLoS ONE, 2019).
Read-outs that look alike come from different tables or passages of the source.

Assays:
[1] = target: T1, Phosphoethanolamine methyltransferase (PfPMT) (Plasmodium falciparum, UniProt Q8IDQ9); test: enzyme-coupled SAM methyltransferase colorimetric assay ([…] nm), Michaelis-Menten kinetics with varied pEth; type: biochemical
T1 construct: gene PMT; recombinant PfPMT expressed from pET-24a in BL21 (DE3), ~30 kDa
T1 sequence (Q8IDQ9 1-266): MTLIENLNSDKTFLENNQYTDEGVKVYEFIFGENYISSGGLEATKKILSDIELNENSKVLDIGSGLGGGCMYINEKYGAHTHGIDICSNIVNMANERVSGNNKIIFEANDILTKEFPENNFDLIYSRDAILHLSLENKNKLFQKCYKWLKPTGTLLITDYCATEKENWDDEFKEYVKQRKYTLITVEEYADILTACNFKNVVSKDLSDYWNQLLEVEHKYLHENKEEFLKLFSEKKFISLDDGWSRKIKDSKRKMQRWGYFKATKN

[2] = substrate: NCCOP(=O)(O)O; test: purified protein; type: biochemical, Plasmodium falciparum; details: SAM substrate (phosphobase) site

`NC(Cc1cc(=O)nc(-c2ccccn2)[nH]1)c1ccc(F)cc1` (stereo not drawn) [ASN.1, 6-[Amino-2-(4-fluoro-phenyl)-ethyl]-pyridin-2-yl-1H-pyrimidin-4-one] gave a Ki [1] of 1200 nM.

With `COc1ccc(CCNC(=O)CNCC2CCCO2)cc1OC` (stereo not drawn) [ASN.3, N-[2-(3,4-Dimethoxy-phenyl)-ethyl]-2-[(tetrahydro-furan-2-ylmethyl)-amino]-acetamide] the Ki ([1]; read-out: Ki) was 2200 nM.

B1: Phosphoethanolamine methyltransferase (PfPMT) (Plasmodium falciparum 3D7) (protein)
chain: T1 sequence (Q8IDQ9 1-266)
notes: recombinant PfPMT expressed from pET-24a in BL21 (DE3), ~30 kDa
B1 was tested, and the Km [2] was 52.4 µM.
